US20080199423A1, “Methods of Using Apo2l Receptor Agonists and Ink Cell Activators” (GENENTECH, INC., priority 2004, published 2008)

How the values were obtained:
B16BL10 melanoma cells = assay: 51Cr release cytotoxicity assay on B16 melanoma target cells; format: cell-based, mouse; conditions: NK cells stimulated with agent
Description: Purified NK cells were treated with poly(I:C) or R-848 and incubated with B16BL10 melanoma cells (ATCC) at the indicated ratios. Purified NK cells stimulated with R-848 were incubated with HCT116 target cells (ATCC) at the indicated ratios. The role of Apo2L/TRAIL in lysis assays in panels B and C was determined by preincubation with neutralizing (5C2) and non-neutralizing (1D1) anti-Apo2L/TRAIL mAbs. The data has been confirmed with NK cells from at least 3 donors and less that 5% SD was observed.
For the cytotoxicity assays, target cells were labeled with 100 mCi ^51Cr for 1 hour at 37° C. and then washed 3 times before use. 10^4 target cells were added to varying numbers of effector cells at the indicated ratios and incubated in duplicate wells for 4 hours at 37° C., 5% CO2, and supernatants were used to determine ^51Cr released using a Gamma counter. The cytotoxicity assays were performed in round bottom 96 well plates and the percent specific lysis was calculated as 100× (experimental cpm-spontaneous cpm)/(total cpm-spontaneous cpm). The role of Apo2L/TRAIL expressed by NK cells in the lysis of target cells was evaluated using anti-Apo2L/TRAIL mAbs (5C2 and 1D1, Genentech, Inc.). Isotype control antibodies were obtained from BD Biosciences.

NK cells = assay: Microarray (Affymetrix U133) gene expression analysis of poly(I:C)-treated NK cells; format: cell-based, human; conditions: for FoldChange / log10-FoldChange: relative to untreated NK cells
Description: A microarray based gene expression analysis using high-density oligonucleotide arrays (GeneChip, Affymetrix) was performed using RNA from resting and poly(I:C)-treated NK cells (NK cells were obtained and purified from 4 healthy donors using the technique described in Example 1 above). The NK cells were treated with poly(I:C) (50 μg/ml, Pharmacia) overnight in RPMI 1640 supplemented with heat inactivated 10% FCS, penicillin, streptomycin, 10 mM sodium pyruvate, 2 mM L-glutamine and 10 mM HEPES. RNA was isolated using a RNeasy kit (Qiagen), and treated with RNase-free DNase-I (Ambion) to ensure removal of contaminating DNA. NK cells were lysed in lysis buffer (50 mM HEPES pH7.5, 150 mM NaCl, 1.5 mM MgCl2, 1 mM EGTA, 10% glycerol and 1% Triton X-100, supplemented with Complete Protease Inhibitor Cocktail (Roche).
Affymetrix U133A and B GeneChip probe arrays were used to identify differentially expressed transcripts. Initially, the genes were ranked according to concordance in the pairwise comparison, and the Mann-Whitney pairwise comparison test was used to calculate significance. Genes for which the concordance was 100% were chosen for further analysis. This approach was previously validated to identify differentially expressed genes by confirming with real time RT-PCR. To determine confidence intervals shown in Table 1, the average log10-signal was computed for each probe set of the genes of interest, or the treatment and control groups. The estimated log10 fold change was defined as the difference between these averages. A pooled estimate of the standard deviation about the two groups' averages (computed separately for each probe set) was used to compute a 95% confidence interval for the log10 fold change. The estimated log10 fold change and the two endpoints of its 95% confidence interval were exponentiated back to the original signal scale, providing an estimate of fold change and a corresponding 95% confidence interval. Additional information about the U133 probe sets is available from the manufacturer, Affymetrix.
Fold change values and associated 95% confidence intervals (degree of freedom=6) were determined for genes of interest upon treatment with poly(I:C) relative to untreated NK cells. Data for each probe set present on the Affymetrix U133 chip series corresponding to the genes of interest is shown.

[1] = tested on: Apo2L/TRAIL protein in NK cells; assay: Quantitative ELISA of Apo2L/TRAIL protein in NK cell lysates or supernatants; format: cell-based, human; conditions: stimulated NK cells
Description: Resting and poly(I:C) stimulated NK cell lysates or their culture supernatants were assessed for the presence of Apo2L/TRAIL protein by quantitative ELISA (kit, BD Biosciences). To confirm Apo2L/TRAIL protein expression was increased following activation of NK cells with poly(I:C) or R848, an ELISA was performed.

[2] = gene Apo2L, probe set 202687_s_at
[3] = gene Apo2L, probe set 202688_at
[4] = gene Apo2L, probe set 214329_x_at
[5] = gene CCL19, probe set 210072_at
[6] = gene CCL20, probe set 205476_at
[7] = gene CCL21, probe set 204606_at
[8] = gene FasL, probe set 211333_s_at
[9] = gene Granulysin, probe set 37145_at
[10] = gene Granulysin, probe set 205495_s_at
[11] = gene Granzyme A, probe set 205488_at
[12] = gene Granzyme B, probe set 210164_at
[13] = gene Granzyme H, probe set 210321_at
[14] = gene Granzyme M, probe set 207460_at
[15] = gene IL-8, probe set 202859_x_at
[16] = gene IL-8, probe set 211506_s_at
[17] = gene NKG2-D, probe set 205821_at
[18] = gene NKG2-D, probe set 210690_at
[19] = gene NKG2A, probe set 206785_s_at
[20] = gene NKp30, probe set 210629_x_at
[21] = gene NKp30, probe set 211581_x_at
[22] = gene NKp30, probe set 211582_x_at
[23] = gene NKp30, probe set 214181_x_at
[24] = gene NKp30, probe set 214574_x_at
[25] = gene Perforin 1, probe set 214617_at
[26] = gene TNFα, probe set 207113_s_at
[27] = poly(I:C) treatment, microarray

Question: With poly(I:C) as the substance, how does the “Killing of B16 melanoma cells by stimulated NK cells” value (B16BL10 melanoma cells) read?
Answer: efficiently killed

Question: What about the FoldChange (NK cells; [2]) of the same substance?
Answer: 13.42

Question: And the log10-FoldChange (NK cells; [2])?
Answer: 1.13

Question: And the FoldChange (NK cells; [3])?
Answer: 9.67

Question: And the log10-FoldChange (NK cells; [3])?
Answer: 0.99

Question: What about the FoldChange (NK cells; [4]) of the same substance?
Answer: 5.85

Question: What about the log10-FoldChange (NK cells; [4]) of the same substance?
Answer: 0.77

Question: What about the FoldChange (NK cells; [5]) of the same substance?
Answer: 34.71

Question: What about the log10-FoldChange (NK cells; [5]) of the same substance?
Answer: 1.54

Question: What about the FoldChange (NK cells; [6]) of the same substance?
Answer: 7.96

Question: What about the log10-FoldChange (NK cells; [6]) of the same substance?
Answer: 0.9

Question: What about the FoldChange (NK cells; [7]) of the same substance?
Answer: 1.2

Question: What about the log10-FoldChange (NK cells; [7]) of the same substance?
Answer: 0.08

Question: And the FoldChange (NK cells; gene CCR7, probe set 206337_at)?
Answer: 4.79

Question: And the log10-FoldChange (NK cells; gene CCR7, probe set 206337_at)?
Answer: 0.68

Question: And the FoldChange (NK cells; gene FasL, probe set 210865_at)?
Answer: 2.37

Question: What about the log10-FoldChange (NK cells; gene FasL, probe set 210865_at) of the same substance?
Answer: 0.37

Question: And the FoldChange (NK cells; [8])?
Answer: 2.49

Question: And the log10-FoldChange (NK cells; [8])?
Answer: 0.4

Question: And the FoldChange (NK cells; [9])?
Answer: 1.18

Question: What about the log10-FoldChange (NK cells; [9]) of the same substance?
Answer: 0.07

Question: And the FoldChange (NK cells; [10])?
Answer: 1.25

Question: What about the log10-FoldChange (NK cells; [10]) of the same substance?
Answer: 0.1

Question: And the FoldChange (NK cells; [11])?
Answer: 0.83

Question: And the log10-FoldChange (NK cells; [11])?
Answer: −0.08

Question: And the FoldChange (NK cells; [12])?
Answer: 1.04

Question: What about the log10-FoldChange (NK cells; [12]) of the same substance?
Answer: 0.02

Question: And the FoldChange (NK cells; [13])?
Answer: 0.58

Question: And the log10-FoldChange (NK cells; [13])?
Answer: −0.24

Question: And the FoldChange (NK cells; [14])?
Answer: 0.81

Question: And the log10-FoldChange (NK cells; [14])?
Answer: −0.09

Question: And the FoldChange (NK cells; gene IFNγ, probe set 210354_at)?
Answer: 14.45

Question: What about the log10-FoldChange (NK cells; gene IFNγ, probe set 210354_at) of the same substance?
Answer: 1.16

Question: And the FoldChange (NK cells; gene IL-6, probe set 205207_at)?
Answer: 10.43

Question: And the log10-FoldChange (NK cells; gene IL-6, probe set 205207_at)?
Answer: 1.02

Question: What about the FoldChange (NK cells; [15]) of the same substance?
Answer: 4.07

Question: What about the log10-FoldChange (NK cells; [15]) of the same substance?
Answer: 0.61

Question: What about the FoldChange (NK cells; [16]) of the same substance?
Answer: 3.42

Question: And the log10-FoldChange (NK cells; [16])?
Answer: 0.53

Question: And the FoldChange (NK cells; [17])?
Answer: 0.86

Question: What about the log10-FoldChange (NK cells; [17]) of the same substance?
Answer: −0.07

Question: And the FoldChange (NK cells; [18])?
Answer: 0.66

Question: And the log10-FoldChange (NK cells; [18])?
Answer: −0.18

Question: And the FoldChange (NK cells; [19])?
Answer: 0.97

Question: What about the log10-FoldChange (NK cells; [19]) of the same substance?
Answer: −0.01

Question: And the FoldChange (NK cells; [20])?
Answer: 0.38

Question: And the log10-FoldChange (NK cells; [20])?
Answer: −0.42

Question: What about the FoldChange (NK cells; [21]) of the same substance?
Answer: 0.26

Question: What about the log10-FoldChange (NK cells; [21]) of the same substance?
Answer: −0.59

Question: What about the FoldChange (NK cells; [22]) of the same substance?
Answer: 0.19

Question: And the log10-FoldChange (NK cells; [22])?
Answer: −0.72

Question: And the FoldChange (NK cells; [23])?
Answer: 0.22

Question: And the log10-FoldChange (NK cells; [23])?
Answer: −0.67

Question: And the FoldChange (NK cells; [24])?
Answer: 0.25

Question: And the log10-FoldChange (NK cells; [24])?
Answer: −0.6

Question: What about the FoldChange (NK cells; [25]) of the same substance?
Answer: 1.3

Question: And the log10-FoldChange (NK cells; [25])?
Answer: 0.12

Question: And the FoldChange (NK cells; [26])?
Answer: 2.68

Question: What about the log10-FoldChange (NK cells; [26]) of the same substance?
Answer: 0.43

Question: And the “Expression of mRNA for FasL and TNF-alpha” value (NK cells; poly(I:C) treatment (activation of TLR3))?
Answer: smaller, but reproducible increase

Question: What about the “Decrease in expression of NKp30 in NK cells” value (NK cells; [27]) of the same substance?
Answer: 3-5 fold

Question: And the “Decrease in expression of granzyme H in NK cells” value (NK cells; [27])?
Answer: 3-5 fold

Question: And the “Expression of mRNAs encoding perforin, granulysin, granzymes A, B, M, NKG2D and NKp44” value (NK cells; [27])?
Answer: did not significantly alter

Question: And the “Increase in expression of Apo2L/TRAIL in NK cells” value (NK cells; [27])?
Answer: ~10 fold

Question: What about the “Apo2L/TRAIL protein in NK cell lysates” value [1] of the same substance?
Answer: present in a cell-associated form

Question: And the “Apo2L/TRAIL released into supernatants” value [1]?
Answer: No significant levels
